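A five-concentration, 48-hour dose response in 96-well plates underlies each endpoint, interpolated linearly between surrounding concentrations. At the GI50, growth is halved.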 Calls of active or inactive are those of the source. Rule as the data show it: active = GI50 up to about 1.1 µM and inactive = higher.
Legend:
Experiment in all cases: NCI anticancer screen, dose series, 48 h
A498 = tested on: A498
A549 = tested on: A549
ACHN = tested on: ACHN
DU-145 = tested on: DU-145
EKVX = tested on: EKVX
HCT-116 = tested on: HCT-116
HCT-15 = tested on: HCT-15
HOP-62 = tested on: HOP-62
KM12 = tested on: KM12
M14 = tested on: M14
MCF7 = tested on: MCF7
MDA-MB-435 = tested on: MDA-MB-435
Malme-3M = tested on: Malme-3M
NCI-H23 = tested on: NCI-H23
NCI-H522 = tested on: NCI-H522
OVCAR-4 = tested on: OVCAR-4
OVCAR-5 = tested on: OVCAR-5
RPMI-8226 = tested on: RPMI-8226
SF-268 = tested on: SF-268
SF-295 = tested on: SF-295
SF-539 = tested on: SF-539
SK-MEL-28 = tested on: SK-MEL-28
SN12C = tested on: SN12C
SNB-75 = tested on: SNB-75
SW-620 = tested on: SW-620
TK-10 = tested on: TK-10
UACC-257 = tested on: UACC-257
UACC-62 = tested on: UACC-62
786-0 = tested on: 786-0
CAKI-1 = tested on: CAKI-1
CCRF-CEM = tested on: CCRF-CEM
COLO 205 = tested on: COLO 205
HCC 2998 = tested on: HCC 2998
HL-60 = tested on: HL-60
HOP-92 = tested on: HOP-92
HT-29 = tested on: HT-29
Hs-578T = tested on: Hs-578T
IGROV-1 = tested on: IGROV-1
K562 = tested on: K562
LOX IMVI = tested on: LOX IMVI
MDA-MB-231 = tested on: MDA-MB-231
MOLT-4 = tested on: MOLT-4
NCI-H226 = tested on: NCI-H226
NCI-H460 = tested on: NCI-H460
NCI/ADR-RES = tested on: NCI/ADR-RES
OVCAR-3 = tested on: OVCAR-3
OVCAR-8 = tested on: OVCAR-8
PC-3 = tested on: PC-3
RXF 393 = tested on: RXF 393
SK-MEL-2 = tested on: SK-MEL-2
SK-MEL-5 = tested on: SK-MEL-5
SK-OV-3 = tested on: SK-OV-3
SNB-19 = tested on: SNB-19
SR = tested on: SR
T47D = tested on: T47D
U-251 = tested on: U-251
UO-31 = tested on: UO-31

COC(C)(C)C1(O)CC[C@@H](C)CC1=O (stereo not given in full)
GI50 (A498): > 100 µM (inactive)
GI50 (A549): > 100 µM (inactive)
GI50 (ACHN): > 100 µM (inactive)
GI50 (DU-145): > 100 µM (inactive)
GI50 (EKVX): > 100 µM (inactive)
GI50 (HCT-116): > 100 µM (inactive)
GI50 (HCT-15): > 100 µM
GI50 (HOP-62): > 100 µM (inactive)
GI50 (KM12): > 100 µM (inactive)
GI50 (M14): > 100 µM (inactive)
GI50 (MCF7): > 100 µM (inactive)
GI50 (MDA-MB-435): > 100 µM (inactive)
GI50 (Malme-3M): > 100 µM (inactive)
GI50 (NCI-H23): > 100 µM (inactive)
GI50 (NCI-H522): > 100 µM (inactive)
GI50 (OVCAR-4): > 100 µM (inactive)
GI50 (OVCAR-5): > 100 µM (inactive)
GI50 (RPMI-8226): > 100 µM (inactive)
GI50 (SF-268): > 100 µM (inactive)
GI50 (SF-295): > 100 µM (inactive)
GI50 (SF-539): > 100 µM (inactive)
GI50 (SK-MEL-28): > 100 µM (inactive)
GI50 (SN12C): > 100 µM (inactive)
GI50 (SNB-75): > 100 µM (inactive)
GI50 (SW-620): > 100 µM (inactive)
GI50 (TK-10): > 100 µM (inactive)
GI50 (UACC-257): > 100 µM (inactive)
GI50 (UACC-62): > 100 µM (inactive)

O=C1NCN(c2ccccc2)C12CCN(CCCSc1ccc(F)cc1)CC2
GI50 (786-0): 24.3 µM (inactive)
GI50 (A498): 11.4 µM (inactive)
GI50 (A549): 33.1 µM (inactive)
GI50 (ACHN): 19.7 µM (inactive)
GI50 (CAKI-1): > 51.5 µM (inactive)
GI50 (CCRF-CEM): 7 µM (inactive)
GI50 (COLO 205): 1.51 µM (inactive)
GI50 (DU-145): 11 µM (inactive)
GI50 (EKVX): 28.2 µM (inactive)
GI50 (HCC 2998): 20.2 µM (inactive)
GI50 (HCT-116): 5.09 µM (inactive)
GI50 (HCT-15): 31.1 µM
GI50 (HL-60): 21.8 µM (inactive)
GI50 (HOP-62): 25.5 µM (inactive)
GI50 (HOP-92): 9.71 µM (inactive)
GI50 (HT-29): 3.85 µM (inactive)
GI50 (Hs-578T): > 42.1 µM (inactive)
GI50 (IGROV-1): 9.1 µM (inactive)
GI50 (K562): 19.5 µM (inactive)
GI50 (KM12): 30.2 µM (inactive)
GI50 (LOX IMVI): 10.5 µM (inactive)
GI50 (M14): 6.25 µM (inactive)
GI50 (MCF7): 5.3 µM (inactive)
GI50 (MDA-MB-231): 5.52 µM (inactive)
GI50 (MDA-MB-435): 12.8 µM (inactive)
GI50 (MOLT-4): 12.2 µM (inactive)
GI50 (Malme-3M): 21.2 µM (inactive)
GI50 (NCI-H226): 25.5 µM (inactive)
GI50 (NCI-H23): 27.7 µM (inactive)
GI50 (NCI-H460): 13 µM (inactive)
GI50 (NCI-H522): > 83.9 µM (inactive)
GI50 (NCI/ADR-RES): > 48 µM (inactive)
GI50 (OVCAR-3): 55.6 µM (inactive)
GI50 (OVCAR-4): 13.8 µM (inactive)
GI50 (OVCAR-5): 16.9 µM (inactive)
GI50 (OVCAR-8): > 100 µM (inactive)
GI50 (PC-3): 47.2 µM (inactive)
GI50 (RPMI-8226): 18.6 µM (inactive)
GI50 (RXF 393): > 42 µM (inactive)
GI50 (SF-268): 28.8 µM (inactive)
GI50 (SF-295): 39 µM (inactive)
GI50 (SF-539): 17.3 µM (inactive)
GI50 (SK-MEL-28): 55.2 µM (inactive)
GI50 (SK-MEL-2): 15.1 µM (inactive)
GI50 (SK-MEL-5): 6.44 µM (inactive)
GI50 (SK-OV-3): > 100 µM (inactive)
GI50 (SN12C): 21.4 µM (inactive)
GI50 (SNB-19): 97.3 µM (inactive)
GI50 (SNB-75): 3.72 µM (inactive)
GI50 (SR): 15.9 µM (inactive)
GI50 (SW-620): > 49.1 µM (inactive)
GI50 (T47D): 28.6 µM (inactive)
GI50 (TK-10): 24.2 µM (inactive)
GI50 (U-251): > 88.5 µM (inactive)
GI50 (UACC-257): 2.92 µM (inactive)
GI50 (UACC-62): 27.4 µM (inactive)
GI50 (UO-31): 48.5 µM (inactive)

Source: ChEMBL document CHEMBL1201862, “PubChem BioAssay data set” (2004)
